This experiment can be described thus: Binding affinity at Sigma receptor type 1, displacement of [3H](+)-pentazocine from guinea pig brain membranes.

A word on the Ki: it is a dissociation constant, usually derived from enzyme kinetics or from competition with a known ligand. A higher Ki goes with a looser hold on the target. `C[C@@H]1[C@@H]2Cc3ccc(O)cc3[C@@]1(C)CCN2Cc1ccc(C#N)cc1` [4-((2S,6S,11S)-8-Hydroxy-6,11-dimethyl-1,2,5,6-tetrahydro-4H-2,6-methano-benzo[d]azocin-3-ylmethyl)-benzonitrile] yielded a Ki of 1.53 nM. Consider `C[C@@H]1[C@@H]2Cc3ccc(O)cc3[C@@]1(C)CCN2Cc1ccccc1F` [(2S,6S,11S)-3-(2-Fluoro-benzyl)-6,11-dimethyl-1,2,3,4,5,6-hexahydro-2,6-methano-benzo[d]azocin-8-ol], for which the affinity corresponds to a Ki of 1.45 nM.

`C[C@@H]1[C@@H]2Cc3ccc(O)cc3[C@@]1(C)CCN2Cc1ccccc1I` [(2S,6S,11S)-3-(2-Iodo-benzyl)-6,11-dimethyl-1,2,3,4,5,6-hexahydro-2,6-methano-benzo[d]azocin-8-ol] had a Ki of 930 nM.

`C[C@@H]1[C@@H]2Cc3ccc(O)cc3[C@@]1(C)CCN2Cc1cccc(I)c1` [(2S,6S,11S)-3-(3-Iodo-benzyl)-6,11-dimethyl-1,2,3,4,5,6-hexahydro-2,6-methano-benzo[d]azocin-8-ol] returned an inhibitory constant (Ki) of 27.2 nM. With `C[C@@H]1[C@@H]2Cc3ccc(O)cc3[C@@]1(C)CCN2Cc1ccc(N)cc1` [(2S,6S,11S)-3-(4-Amino-benzyl)-6,11-dimethyl-1,2,3,4,5,6-hexahydro-2,6-methano-benzo[d]azocin-8-ol] the figure was 16.8 nM; with `C[C@@H]1[C@@H]2Cc3ccc(O)cc3[C@@]1(C)CCN2Cc1ccc(Br)cc1` [(2S,6S,11S)-3-(4-Bromo-benzyl)-6,11-dimethyl-1,2,3,4,5,6-hexahydro-2,6-methano-benzo[d]azocin-8-ol], 3.11 nM; with `C[C@@H]1[C@@H]2Cc3ccc(O)cc3[C@@]1(C)CCN2Cc1ccc(Cl)cc1` [(2S,6S,11S)-3-(4-Chloro-benzyl)-6,11-dimethyl-1,2,3,4,5,6-hexahydro-2,6-methano-benzo[d]azocin-8-ol], 2.37 nM. Then `C[C@@H]1[C@@H]2Cc3ccc(O)cc3[C@@]1(C)CCN2Cc1ccc(N(C)C)cc1` [(2S,6S,11S)-3-(4-Dimethylamino-benzyl)-6,11-dimethyl-1,2,3,4,5,6-hexahydro-2,6-methano-benzo[d]azocin-8-ol], with 102 nM; and `C[C@@H]1[C@@H]2Cc3ccc(O)cc3[C@@]1(C)CCN2Cc1ccc(F)cc1` [(2S,6S,11S)-3-(4-Fluoro-benzyl)-6,11-dimethyl-1,2,3,4,5,6-hexahydro-2,6-methano-benzo[d]azocin-8-ol], with 0.97 nM; and `C[C@@H]1[C@@H]2Cc3ccc(O)cc3[C@@]1(C)CCN2Cc1ccc(I)c([N+](=O)[O-])c1` [(2S,6S,11S)-3-(4-Iodo-3-nitro-benzyl)-6,11-dimethyl-1,2,3,4,5,6-hexahydro-2,6-methano-benzo[d]azocin-8-ol], with 386 nM. With `C[C@@H]1[C@@H]2Cc3ccc(O)cc3[C@@]1(C)CCN2Cc1ccc(I)cc1` [(2S,6S,11S)-3-(4-Iodo-benzyl)-6,11-dimethyl-1,2,3,4,5,6-hexahydro-2,6-methano-benzo[d]azocin-8-ol] the figure was 16.5 nM.

`COc1ccc(CN2CC[C@]3(C)c4cc(O)ccc4C[C@H]2[C@H]3C)cc1` [(2S,6S,11S)-3-(4-Methoxy-benzyl)-6,11-dimethyl-1,2,3,4,5,6-hexahydro-2,6-methano-benzo[d]azocin-8-ol] had a Ki of 2.89 nM. `C[C@@H]1[C@@H]2Cc3ccc(O)cc3[C@@]1(C)CCN2Cc1ccc(C(C)(C)C)cc1` [(2S,6S,11S)-3-(4-tert-Butyl-benzyl)-6,11-dimethyl-1,2,3,4,5,6-hexahydro-2,6-methano-benzo[d]azocin-8-ol] had a Ki of 1070 nM. With `Cc1ccccc1CN1CC[C@]2(C)c3cc(O)ccc3C[C@H]1[C@H]2C` [(2S,6S,11S)-6,11-Dimethyl-3-(2-methyl-benzyl)-1,2,3,4,5,6-hexahydro-2,6-methano-benzo[d]azocin-8-ol] the figure was 12.8 nM.

`Cc1ccc(CN2CC[C@]3(C)c4cc(O)ccc4C[C@H]2[C@H]3C)cc1` [(2S,6S,11S)-6,11-Dimethyl-3-(4-methyl-benzyl)-1,2,3,4,5,6-hexahydro-2,6-methano-benzo[d]azocin-8-ol] showed a Ki of 2.08 nM. With `C[C@@H]1[C@@H]2Cc3ccc(O)cc3[C@@]1(C)CCN2Cc1ccc([N+](=O)[O-])cc1` [(2S,6S,11S)-6,11-Dimethyl-3-(4-nitro-benzyl)-1,2,3,4,5,6-hexahydro-2,6-methano-benzo[d]azocin-8-ol] the figure was 2.19 nM. With `C[C@@H]1[C@@H]2Cc3ccc(O)cc3[C@@]1(C)CCN2Cc1ccc(C(F)(F)F)cc1` [(2S,6S,11S)-6,11-Dimethyl-3-(4-trifluoromethyl-benzyl)-1,2,3,4,5,6-hexahydro-2,6-methano-benzo[d]azocin-8-ol] the figure was 20.5 nM; with `CC(=O)Nc1ccc(CN2CC[C@]3(C)c4cc(O)ccc4C[C@H]2[C@H]3C)cc1` [N-[4-((2S,6S,11S)-8-Hydroxy-6,11-dimethyl-1,2,5,6-tetrahydro-4H-2,6-methano-benzo[d]azocin-3-ylmethyl)-phenyl]-acetamide], 47 nM.

The values are drawn from BindingDB's records for doi:10.1021/jm00003a019 (Research Triangle Institute, 1995).
